The values that follow come from ChEMBL document CHEMBL5729177, “GLS1 inhibitors for treating disease” (2022).

In the experiment the target is T1, Glutaminase kidney isoform, mitochondrial (Homo sapiens, UniProt O94925).
T1 sequence (O94925 whole entry): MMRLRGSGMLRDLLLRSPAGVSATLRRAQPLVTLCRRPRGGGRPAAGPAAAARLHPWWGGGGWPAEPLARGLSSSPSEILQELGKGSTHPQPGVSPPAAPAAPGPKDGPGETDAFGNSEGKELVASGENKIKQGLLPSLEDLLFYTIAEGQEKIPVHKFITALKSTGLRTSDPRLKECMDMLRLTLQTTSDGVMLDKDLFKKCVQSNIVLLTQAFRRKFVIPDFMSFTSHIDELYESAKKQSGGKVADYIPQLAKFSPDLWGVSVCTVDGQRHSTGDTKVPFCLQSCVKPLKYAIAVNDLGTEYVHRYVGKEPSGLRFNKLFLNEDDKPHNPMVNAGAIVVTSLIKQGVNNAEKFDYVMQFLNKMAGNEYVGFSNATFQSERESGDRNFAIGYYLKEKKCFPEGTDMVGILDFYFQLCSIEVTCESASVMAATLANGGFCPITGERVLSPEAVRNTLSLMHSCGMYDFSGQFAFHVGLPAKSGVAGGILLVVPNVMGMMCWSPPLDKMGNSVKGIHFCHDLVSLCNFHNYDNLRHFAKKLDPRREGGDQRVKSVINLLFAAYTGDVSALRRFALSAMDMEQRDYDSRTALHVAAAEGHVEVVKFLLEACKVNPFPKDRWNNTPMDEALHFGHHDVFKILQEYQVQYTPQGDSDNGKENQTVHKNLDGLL
The experiment can be described thus: Enzymatic Activity Assay: The inhibition of purified recombinant human GAC by varying concentrations of inhibitors is assessed via a dual-coupled enzymatic assay. The glutamate produced by the glutaminase reaction is used by glutamate oxidase to produce α-ketoglutarate, ammonia, and hydrogen peroxide, with this hydrogen peroxide subsequently being used by horseradish peroxidase to produce resorufin in the presence of Amplex UltraRed. The assay buffer consisted of 50 mM Hepes (pH 7.4), 0.25 mM EDTA and 0.1 mM Triton X-100. GAC was incubated with potassium phosphate (10 minutes at room temperature) prior to incubation with inhibitor (10 minutes at room temperature). The final reaction conditions were as follows: 2 nM GAC, 50 mM potassium phosphate, 100 mU/mL glutamate oxidase (Sigma), 1 mM glutamine (Sigma), 100 mU/mL horseradish peroxidase (Sigma), 75 μM Amplex UltraRed (Life Technologies), and 1% (v/v) DMSO. The production of resorufin was monitored on a Perkin Elmer Envision plate reader (excitation 530 nm, emission 590 nm) either in a kinetics or endpoint mode (at 20 minutes). IC50 values were calculated using a four-parameter logistic curve fit.

As usually defined, the IC50 is the concentration that inhibits the measured activity by half. Take `O=C(NCc1cc(OC(F)(F)F)ccc1F)c1cn(CCC(F)Cn2cc(C(=O)NCc3ccccn3)nn2)nn1` (stereo unspecified): the IC50 was less than 100 nM.
